From patent publication US20100056606A1, “Combination therapy using budesonide and antisense oligonucleotide targeted to IL4-receptor alpha” (ISIS Pharmaceuticals, Inc., priority 2005, published 2010)

What was measured:
OVA sensitized mice [1] = experiment: Mouse model of allergic inflammation, chronic model (Penh, BAL cells, cytokines); assay type: in vivo; conditions: 2.5 mg/kg intraperitoneal, day 76
Protocol: In the mouse model of allergic inflammation, mice are sensitized and challenged with aerosolized chicken ovalbumin (OVA). Airway responsiveness is assessed by inducing airflow obstruction using a noninvasive method whereby unrestrained conscious OVA sensitized mice are placed into the main chamber of a plethysmograph (Buxco Electronics, Inc. Troy, N.Y.) and challenged with aerosolized methacholine. Pressure difference between this chamber and a reference chamber is used to extrapolate minute volume, breathing frequency and enhanced pause (Penh). Penh is a dimensionless parameter that is a function of total pulmonary airflow (i.e. the sum of the airflow in the upper and lower respiratory tracts) during the respiratory cycle of a mouse and is […] when airflow is greater. This parameter closely correlates with lung resistance as measured by traditional, invasive techniques using ventilated animals (Hamelmann et al., 1997, Am. J. Respir. Crit. Care Med. 156:766-775).
In the chronic model of allergic inflammation, mice are subjected to repeated intranasal OVA administration, producing a chronic inflammatory response. In this model, mice were sensitized by intraperitoneal injection with 100 μg of OVA on days 0 and 14 as in the previous models. OVA was administered at a dose of 500 μg on days 14, 27, 28, 29, 47, 61, 73, 74 and 75. Oligonucleotide, either ISIS 231894 or the mismatch control, was administered via the nose-only aerosol delivery exposure system at a dose of either 5 μg/kg or 500 μg/kg on days 31, 38, 45, 52, 59, 66 and 73. Dexamethasone, an anti-inflammatory agent, was administered by intraperitoneal injection at 2.5 mg/kg on days 47, 62, 73, 74 and 75. Analysis of endpoints was performed on day 76, except cytokines which were evaluated on day 62, 6 hours post OVA challenge. Endpoints were similar to those in the acute and rechallenge model, and included Penh (AHR), BAL inflammatory cell accumulation and cytokines and mucus accumulation.

OVA sensitized mice [2] = experiment: Acute allergic inflammation mouse model with inhaled budesonide and/or ISIS 231894; assay type: in vivo
Protocol: In the mouse model of allergic inflammation, mice are sensitized and challenged with aerosolized chicken ovalbumin (OVA). Airway responsiveness is assessed by inducing airflow obstruction using a noninvasive method whereby unrestrained conscious OVA sensitized mice are placed into the main chamber of a plethysmograph (Buxco Electronics, Inc. Troy, N.Y.) and challenged with aerosolized methacholine. Pressure difference between this chamber and a reference chamber is used to extrapolate minute volume, breathing frequency and enhanced pause (Penh). Penh is a dimensionless parameter that is a function of total pulmonary airflow (i.e. the sum of the airflow in the upper and lower respiratory tracts) during the respiratory cycle of a mouse and is lower when airflow is greater.
For the acute model of allergic inflammation, mice were sensitized with 20 μg of alum-precipitated OVA was injected intraperitoneally on days 0 and 14. On days 24, 25 and 26, animals were exposed for 20 minutes to 1% OVA (in saline) by ultrasonic nebulization. On days 17, 19, 21, 24 and 26 animals were dosed with vehicle alone (saline), 1 μg/kg or 10 μg/kg of ISIS 231894 or the mismatch control oligonucleotide. Oligonucleotides or vehicle were suspended in 0.9% sodium chloride and delivered via inhalation using a nose-only aerosol delivery exposure system. A Lovelace nebulizer set at a flow rate of 1.4 liter per minute feeding into a total flow rate of 10 liters per minute was used to deliver the oligonucleotide. The exposure chamber was equilibrated with an oligonucleotide aerosol solution for 5 minutes before mice were placed in a restraint tube attached to the chamber. Restrained mice were treated for a total of 10 minutes. Analysis was performed on day 28.
The acute mouse model of allergic inflammation was used to determine if co-administration of inhaled IL-4R alpha antisense oligonucleotide would enhance the activity of inhaled budesonide, or reduce the dose required to produce anti-inflammatory activity. As described in Example 6, mice were sensitized with alum-precipitated OVA at day 0 and day 14 and nebulized with OVA in saline on days 24, 25 and 26. All mice were analyzed on day 28. Budesonide (0.3, 3, 30, and 300 μg/kg dissolved in PBS Containing 20% DMSO) was administered by nose-only aerosol exposure beginning on day 23 (24 and 20 hours before OVA exposure) and then daily through day 26, one hour prior to daily OVA exposure. The 30 μg/kg dose was also administered twice a day (bid) from day 23-26 as a separate group. As in Example 6, ISIS 231894 was administered by nose-only aerosol exposure at day 17, 19, 21, 23 and 26.
The effect of budesonide and/or ISIS 231894 treatment on AHR, BAL eosinophil infiltration and mucus accumulation (number of PAS-positive airways) were determined.

OVA sensitized mice [3] = experiment: Allergic rhinitis mouse model, intranasal administration; assay type: in vivo
Protocol: In a mouse model of allergic rhinitis, animals were sensitized intraperitoneally with alum-precipitated OVA on days 1, 5, 10 and 15. OVA diluted with saline was administered intranasally (25 μL of 500 μg OVA in each nare) daily, on days 18-22, 25-29, and 32-35. ISIS 231894 and budesonide were administered intranasally, with budesonide administration one hour before each intranasal OVA challenge. ISIS 231894 was administered on days 11, 13, 15, and one hour before each intranasal OVA challenge. Endpoints were evaluated on day 36 and included nasal mucus accumulation (nasal histopathology) nasal eosinophilia, neutrophilia (by nasal lavage analysis and microscopic eosinophil counts in epithelial tissue) and allergic symptoms (numbers of sneezes and nose-rubs observed over a fixed time period).

IL-4R alpha mRNA = experiment: Dose-dependent reduction of IL-4R alpha mRNA in human A549 cells; assay type: cell-based
Text: The human lung carcinoma cell line A549 was obtained from the American Type Culture Collection (Manassas, Va.). A549 cells were routinely cultured in DMEM, high glucose (Invitrogen Life Technologies, Carlsbad, Calif.) supplemented with 10% fetal bovine serum, 100 units per ml penicillin, and 100 micrograms per ml streptomycin (Invitrogen Life Technologies, Carlsbad, Calif.). Cells were routinely passaged by trypsinization and dilution when they reached approximately 90% confluence. Cells were seeded into 96-well plates (Falcon-Primaria #3872) at a density of approximately 5000 cells/well for use in oligomeric compound transfection experiments.
When cells reach appropriate confluency, they are treated with oligonucleotide using Lipofectin™ as described. When cells reached 65-75% confluency, they were treated with oligonucleotide. Oligonucleotide was mixed with LIPOFECTIN™ Invitrogen Life Technologies, Carlsbad, Calif.) in Opti-MEM™-1 reduced serum medium (Invitrogen Life Technologies, Carlsbad, Calif.) to achieve the desired concentration of oligonucleotide and a LIPOFECTIN™ concentration of 2.5 or 3 […] oligonucleotide. This transfection mixture was incubated at room temperature for approximately 0.5 hours. For cells grown in 96-well plates, wells were washed once with 100 μL OPTI-MEM™-1 and then treated with 130 μL of the transfection mixture. Cells grown in 24-well plates or other standard tissue culture plates are treated similarly, using appropriate volumes of medium and oligonucleotide. […]
Quantitation of IL-4R alpha mRNA levels was accomplished by real-time quantitative PCR using the ABI PRISM™ 7600, 7700, or 7900 Sequence Detection System (PE-Applied Biosystems, Foster City, Calif.) according to manufacturer's instructions.
In both cell types, at concentrations of 100 nM, 50 nM and 25 nM, ASOs 1-4 each caused dose-dependent reduction of target (TL-4R alpha) mRNA and protein (as measured by flow cytometry) with no significant effect on total cellular mRNA, measured 24 hours following ASO treatment.

MUC2 mRNA = experiment: Reduction of cytokine-induced MUC2 mRNA in human cells; assay type: cell-based; conditions: human A549 cells (table title)
[4] = mouse, in vivo
[5] = 30 μg/kg budesonide alone (Table 9)
[6] = Table 11, 35 μg/kg + 5% DMSO intranasal
[7] = Table 11, 35 μg/kg + 20% DMSO intranasal

C[C@@H]1C[C@H]2[C@@H]3CCC4=CC(=O)C=C[C@]4(C)[C@@]3(F)[C@@H](O)C[C@]2(C)[C@@]1(O)C(=O)CO [dexamethasone, reference compound]
% Eosinophils (BAL) (OVA sensitized mice [1]): 25% | % Neutrophils (BAL) (OVA sensitized mice [1]): 58%

CCCC1O[C@@H]2C[C@H]3[C@@H]4CCC5=CC(=O)C=C[C@]5(C)[C@H]4[C@@H](O)C[C@]3(C)[C@]2(C(=O)CO)O1 (some centres unmarked) [budesonide]
% Eosinophils (BAL) (OVA sensitized mice [2]; 0.3 μg/kg inhaled (Table 8)): 41% | Penh (100 mg/mL methacholine) (OVA sensitized mice [2]; 0.3 μg/kg inhaled (Table 8)): 4.75 | % Eosinophils (BAL) (OVA sensitized mice [2]; 3 μg/kg inhaled (Table 8)): 32% | Penh (100 mg/mL methacholine) (OVA sensitized mice [2]; 3 μg/kg inhaled (Table 8)): 4.5 | % Eosinophils (BAL) (OVA sensitized mice [2]; 30 μg/kg bid inhaled): 20% | Penh (100 mg/mL methacholine) (OVA sensitized mice [2]; 30 μg/kg bid inhaled): 3.25 | % Eosinophils (BAL) (OVA sensitized mice [2]; [5]): 20% | PAS+ airways (mucus accumulation) (OVA sensitized mice [2]; [5]): 18 | Penh (100 mg/mL methacholine) (OVA sensitized mice [2]; [5]): 5.5 | % Eosinophils (BAL) (OVA sensitized mice [2]; 30 μg/kg inhaled (Table 8)): 21% | Penh (100 mg/mL methacholine) (OVA sensitized mice [2]; 30 μg/kg inhaled (Table 8)): 3.25 | % Eosinophils (BAL) (OVA sensitized mice [2]; 300 μg/kg inhaled (Table 8)): 15% | Penh (100 mg/mL methacholine) (OVA sensitized mice [2]; 300 μg/kg inhaled (Table 8)): 3.75 | minimum effective dose (OVA sensitized mice [2]; inhaled): 0.03 mg/kg | Nasal rubs (OVA sensitized mice [3]; Table 10, 3.5 μg/kg intranasal): 5 per 5 min | Sneezes (OVA sensitized mice [3]; Table 10, 3.5 μg/kg intranasal): 6 per 5 min | % Nasal lavage eosinophils (OVA sensitized mice [3]; Table 10, 35 μg/kg intranasal): 11% | % Nasal lavage neutrophils (OVA sensitized mice [3]; Table 10, 35 μg/kg intranasal): 28% | Nasal rubs (OVA sensitized mice [3]; Table 10, 35 μg/kg intranasal): 4.5 per 5 min | Sneezes (OVA sensitized mice [3]; Table 10, 35 μg/kg intranasal): 2 per 5 min | % Nasal lavage eosinophils (OVA sensitized mice [3]; Table 10, 350 μg/kg intranasal): 4% | % Nasal lavage neutrophils (OVA sensitized mice [3]; Table 10, 350 μg/kg intranasal): 12% | Nasal rubs (OVA sensitized mice [3]; Table 10, 350 μg/kg intranasal): 4 per 5 min | Sneezes (OVA sensitized mice [3]; Table 10, 350 μg/kg intranasal): 3 per 5 min | % Nasal lavage eosinophils (OVA sensitized mice [3]; Table 10, 500 μg/kg intranasal): 2% | % Nasal lavage neutrophils (OVA sensitized mice [3]; Table 10, 500 μg/kg intranasal): 6% | Nasal rubs (OVA sensitized mice [3]; Table 10, 500 μg/kg intranasal): 2 per 5 min | Sneezes (OVA sensitized mice [3]; Table 10, 500 μg/kg intranasal): 2 per 5 min | % Nasal lavage eosinophils (OVA sensitized mice [3]; [6]): 7% | % Nasal lavage neutrophils (OVA sensitized mice [3]; [6]): 9% | Nasal rubs (OVA sensitized mice [3]; [6]): 0.6 per 5 min | Sneezes (OVA sensitized mice [3]; [6]): 2.8 per 5 min | Tissue eosinophils (OVA sensitized mice [3]; [6]): 174 per mm^2 | % Nasal lavage eosinophils (OVA sensitized mice [3]; [7]): 7% | % Nasal lavage neutrophils (OVA sensitized mice [3]; [7]): 12% | Nasal rubs (OVA sensitized mice [3]; [7]): 1.2 per 5 min | Sneezes (OVA sensitized mice [3]; [7]): 5.8 per 5 min

ASO3: antisense oligonucleotide targeted to human IL-4R alpha; TGGAAAGGCTTATACCCCTC; SEQ ID NO: 25 (chemistry not given here)
IL-4R alpha mRNA (IL-4R alpha mRNA; 25 nM): 45 % of untreated control | IL-4R alpha mRNA (IL-4R alpha mRNA; 50 nM): 29 % of untreated control | IL-4R alpha mRNA (IL-4R alpha mRNA; 100 nM): 17 % of untreated control | MUC-2 mRNA (MUC2 mRNA; 25 nM): 86 % of untreated control | MUC-2 mRNA (MUC2 mRNA; 50 nM): 63 % of untreated control | MUC-2 mRNA (MUC2 mRNA; 100 nM): 39 % of untreated control | macrophage infiltrate in the lung, in words [4]: dose-related macrophage infiltrate was observed | serum chemistry markers or lung morphology (histology), in words ([4]; ip): no change
